Laboratory results as given in patent US20040054130A1, “Insulin potentiating peptides” (priority 2000, published 2004).
Square brackets hold non-standard residues; d marks the D form. Ends that are not written are not given here.

What was measured:
[1] = system: C57BL/6J ob/ob mice; test: Intraperitoneal glucose tolerance test (IPGTT) after chronic administration; type: in vivo, mouse
Experimental: An intraperitoneal glucose tolerance test was conducted to determine whether the clearance of a glucose load was enhanced. […], five receiving saline and five receiving peptide 3. At 14 days after chronic administration of saline or peptide 3, mice were fasted for 4 hours, then anaesthetized and eye-bled for day 14 plasma metabolite analysis. Half of each saline or peptide 3 treatment group was given a single intraperitoneal injection of glucose (1 g/kg dissolved in saline), and the other half saline (equivalent dose). Mice were eye-bled at 30, 60 and 120 minutes after glucose administration, and blood glucose levels were determined.

[2] = system: adipose tissue; test: Ex vivo glucose transport assay in adipose tissue of chronically treated mice; type: cell-based, mouse; settings: after 14 days treatment
Experimental: (c) Glucose transport assay Glucose transport in adipose tissue extracted from saline-treated and chronically peptide 3-treated mice was analyzed by an ex vivo glucose uptake assay. Adipose tissues was harvested from mice which had received saline (n=5) or peptide 3 (n=4) in the IPGTT, and used for a glucose transport assay. Mice were sacrificed by a lethal injection of pentabarbitone to the heart. Epididymal fat from male mice or peritoneal fat from female mice was used. Adipose tissues were rinsed in saline and then sliced into even pieces for weight determination. Tissues were placed in flasks and incubated in 2 ml KRB buffer (pH 7.4) containing D-glucose (10 mM final concentration) with vigorous agitation at 37° C. for 2 h under an atmosphere of carbogen. All samples were then placed on ice to reduce glycolysis. Tissues were removed from flasks, and the remaining solutions were analyzed for glucose concentrations using a glucose analyzer. Glucose uptake by each tissue sample was calculated, and compared to tissue free buffer controls.

Arg-D-Ala-Phe-Phe-NH2 (R[dA]FF-NH2; N-terminus assumed; SMILES C[C@@H](NC(=O)[C@@H](N)CCCNC(=N)N)C(=O)N[C@@H](Cc1ccccc1)C(=O)N[C@@H](Cc1ccccc1)C(N)=O) [Peptide 3]
increase in plasma glucose after glucose bolus ([1]; 30 min after 1 g/kg glucose i.p.): 115%
reduction of blood glucose compared to saline-treated mice ([1]; 120 min after glucose injection): 47%
lower basal blood glucose level compared to saline-treated mice ([1]; prior to glucose injection, day 14): 46.1%
more glucose transported than adipose tissue from saline-treated mice [2]: 38%
glucose transport by adipose tissue ([2]; 10 mM D-glucose, 2 h, 37° C.): 1.67±0.18 nmol/mg tissue/h
